Measured values taken from patent publication US20220196635A1, “Fibrosis Assay” (Georgia Tech Research Corporation, priority 2020, published 2022).

How the values were obtained:
[1] = system: human primary lung fibroblasts (NHLF, IPF) in fibrin micro-scaffolds; test: Contracting scar-in-a-drop fibroplasia assay (final projected area of cell-ECM spheroids); type: cell-based
Protocol: Human primary lung fibroblasts were used in all experiments presented in this paper. Unless otherwise noted, experiments utilized normal human lung fibroblasts (NHLF B lot #0000580583; Lonza) from a person with a history of smoking. For experiments evaluating donor variability, the following cells were utilized: NHLF A (NHLF lot #0000608197; Lonza) from a person, IPF A (IPF lot #0000627840; Lonza) from a person, and IPF B (IPF lot #6F5002; Lonza) from a person. All cells were cultured in fibroblast growth media (FGM; Lonza). Cells were passaged at 80-90% confluence and were sub-cultured in 1:3 ratios by trypsinization. When at the desired confluence, cells were washed with PBS and 0.05% trypsin solution was added to the flask. Cells were incubated for 2 min, and then harvested and centrifuged ([…], 5 min) in a conical tube. The supernatant was aspirated and the cell pellet was re-suspended in FBS-free culture media. When used in fibrin degradation experiments, cells were re-suspended at 2× the final desired concentration (2500 cells/ul unless otherwise indicated). To promote collagen production and contraction in addition to fibrin degradation, serum (bovine or human) were added at 2% or higher up to about 10%. Higher cell densities (about 2500 cells/ul and higher up to about 10,000 cells/ul) also promote collagen production. All experiments were conducted with cells at or below passage 8 except for high passage experiments conducted at passage 12. In all experiments, media was changed every 48 hours and any media additives (plasminogen, TGF-β1, drugs, etc.,) were included.
ATPS printing of fibrin micro-scaffolds has previously described above. Briefly, working solutions of PEG with 0.1 U/mL of thrombin were warmed to 37° C. and pipetted into a 96-well plate. For production of droplets, fibrinogen-DEX solutions with cell suspension were maintained at 37° C. and 4 μl per assay (unless otherwise noted) was pipetted directly into the PEG-thrombin media using a semi-automated repeater pipette (Repeater E3X; Eppendorf). Following dispensing of the DEX phase, the plates were placed in an ambient air incubator at 37° C. for 30 min to allow the thrombin to enzymatically crosslink the fibrinogen into a fibrin matrix (FIG. 6A). The PEG-enriched media was removed using a 12-channel micropipette and replaced with 100 μl of fully supplemented media in each well. When applicable, this media addition was supplemented with stimuli as detailed in example 17 below. For the duration of each experiment, assay plates were imaged every 2 hours at 4× with an automated cell culture monitoring system (Incucyte S3; Sartorius). As the assay proceeded, the fibroblasts progressively remodeled the fibrin scaffold as illustrated in FIG. 6C.
After each experiment, the final projected areas of the cell-ECM spheroids were determined from brightfield images taken at the final time point using a benchtop imaging system (2× objective; EVOS M7000; ThermoFisher). These images were then segmented through a process of pixel classification, thresholding, and morphological filtering in order to isolate the cell-ECM construct area from the background.
Pixel classification implemented Ilastic, a freely available image classification tool developed by the European Molecular Biology Laboratory. Ilastik's pixel classification utility implements a random forest classifier for quick and robust segmentation. In order to train the classifier, 10 characteristic images were selected to include different stages of ECM remodeling. In this step, each individual pixel is assigned a probability for belonging to layers for the background or the cell-ECM construct. Ilastik enables interactive training of the random forest classifier via user annotations of the training images. […]

[2] = system: NHLF cells and diseased IPF cells (primary human lung fibroblasts) in fibrin scaffold; test: Microscale cell-mediated fibrinolysis assay (ATPS-printed fibroblast-laden fibrin scaffolds, brightfield pixel intensity); type: cell-based; settings: for impact on fibroblast-mediated fibrinolysis: 400 μM pirfenidone, 0.4 μM nintedanib, 20 μM diethyl-pythiDC, NHLF and IPF cells; for rate of cell-mediated fibrinolysis (50% degradation time): 100 μM hydrogen peroxide
Protocol: A stock solution of DEX (20% w/w dextran T500; Sigma) was prepared in phosphate buffered saline (PBS) on a rocker overnight. A stock solution of PEG (6% w/w, 35 k MW; Sigma) was prepared in fully supplemented culture media with 10% deionized water to balance osmolality. Both stock solutions were passed through a 0.22 um sterilizing syringe filter before storage. PEG working solutions were stored for up to 2 weeks at 4° C. Thrombin (Human Alpha Thrombin; Enzyme Research Labs) was also added to the PEG solution at a concentration of 0.1 U/mL immediately preceding experiments. Fibrinogen-DEX solutions were prepared by diluting fibrinogen stock solution (human fibrinogen 3; Enzyme Research Labs) to a final concentration of 4 mg/mL in a sterile solution of 4% 10×DMEM, 15% DEX stock solution (to a final concentration of 3% dextran), and 50% cell suspension in growth media. For all experiments excluding cell concentration evaluation, the cell suspension was diluted for 1000 cells per microliter in the final fibrinogen-DEX solution.
Normal human lung fibroblasts (NHLF lot #0000580583; […] Cells were passaged at 80-90% confluence and were sub-cultured in 1:3 ratios by trypsinization. When at the desired confluence, cells were washed with PBS and 0.05% trypsin solution was added to the flask. Cells were incubated for 2 min, diluted with fibroblast growth media, and then harvested and centrifuged (200× g, 5 min) in a conical tube. The supernatant was aspirated and the cell pellet was re-suspended in serum-free culture media. When used in fibrin degradation experiments, cells were re-suspended at 2× the final desired concentration (1000 cells/ul unless otherwise indicated). All experiments were conducted with cells at or below passage 12. In all experiments, media was changed every 48 hours and any media additives (plasminogen, TGF-β1, drugs, etc.) were included.
Working solutions of PEG with 0.1 U/mL of thrombin were warmed to 37° C. and pipetted into a 96-well plate. For production of droplets, fibrinogen-DEX solutions with cell suspension were maintained at 37° C. and pipetted directly into the PEG-thrombin media using either a manual pipette or a semi-automated 96-channel pipette (Viaflo-96; Integra). All assays utilized a volume of 1 μl unless otherwise noted. Following dispensing of the DEX phase, the plates were placed in an incubator at 37° C. for 30 min to allow the thrombin to enzymatically crosslink the fibrinogen into a fibrin matrix (FIG. 1A). The PEG-enriched media was then washed four times by removing, then replacing half of the media with PEG-free media. When applicable, the final media addition was supplemented with stimuli as detailed in Example 5 below. For the duration of each experiment, assay plates were imaged every 2 hours at 4× with an automated cell culture monitoring system (Incucyte S3; Essen Biosystems). After one day of culture, plasminogen (50 μg/mL) (Human Glu-Plasminogen; Enzyme Research Labs) was added as a 10× concentrated solution to each well in order to initiate assay degradation (FIG. 1B), unless otherwise noted for specific conditions. Fresh plasminogen was included with each subsequent media addition. Positive controls with active plasmin (1 U/ml) (Human Plasmin; Enzyme Research Labs) and negative controls without plasminogen were included in each experiment. As cells activated plasminogen, the fibrin scaffold progressively degraded as illustrated in FIG. 1C.
After each experiment, brightfield images for every time point were downloaded in jpeg format from the automated cell culture monitoring system. Python's OpenCV library was implemented for the masking approach illustrated in FIG. 2A. First, a threshold was set at 50% of the maximum intensity (128 for 8-bit integer pixel values) in order to isolate the darker pixels of semi-opaque fibrin hydrogel from the background of the image. A closing morphological filter with a 25×25 kernel was then applied to each mask in order to remove noise. […]

[3] = TGF-β1 treated (2 ng/mL), NHLF and IPF cells, 10 μM TM5275, 500 μM pirfenidone

## O=C(COCC(=O)N1CCN(C(c2ccccc2)c2ccccc2)CC1)Nc1ccc(Cl)cc1C(=O)O [TM5275]
[1]; [3]
  final area of spheroids: decreased the spheroid area
[1]; conditions that omitted TGF-β1, 10 μM TM5275
  spheroid area: not in conditions that omitted TGF-β1

## CCOC(=O)c1ccc(-c2ncc(C(=O)OCC)s2)nc1 [diethyl-pythiDC]
[2]
  impact on fibroblast-mediated fibrinolysis: significantly (P<0.05) delayed fibrinolysis

## OO [hydrogen peroxide]
[2]; conditions that included TGF-β1 (2 ng/ml)
  rate of cell-mediated fibrinolysis (50% degradation time): no significant difference
[2]; no TGF-β1
  rate of cell-mediated fibrinolysis (50% degradation time): highly significant decreases in the rates of fibrinolysis

## COC(=O)c1ccc2c(c1)NC(=O)/C2=C(\Nc1ccc(N(C)C(=O)CN2CCN(C)CC2)cc1)c1ccccc1 [nintedanib]
[2]
  impact on fibroblast-mediated fibrinolysis: did not show a significant impact on fibrinolysis
[1]; all conditions (with and without TGF-β1; NHLF and IPF cells), 1 μM nintedanib
  final area of spheroids: significant decreases in final area for all conditions
[1]; nintedanib, 2 normal and 2 IPF donors, one IPF donor not statistically significant (p<0.3)
  final projected area, fibroblast donor variability: reduced the final projected area

## Cc1ccc(=O)n(-c2ccccc2)c1 [pirfenidone]
[2]
  impact on fibroblast-mediated fibrinolysis: did not show a significant impact on fibrinolysis
[1]; [3]
  final area of spheroids: significant decrease in final area

B1: plasmin: Human Plasmin (Enzyme Research Labs), positive control for fibrin degradation (protein, UniProt P00747 20-580; P00747 581-810, looked up)
Plasmin heavy chain A: EPLDDYVNTQGASLFSVTKKQLGAGSIEECAAKCEEDEEFTCRAFQYHSKEQQCVIMAENRKSSIIIRMRDVVLFEKKVYLSECKTGNGKNYRGTMSKTKNGITCQKWSSTSPHRPRFSPATHPSEGLEENYCRNPDNDPQGPWCYTTDPEKRYDYCDILECEEECMHCSGENYDGKISKTMSGLECQAWDSQSPHAHGYIPSKFPNKNLKKNYCRNPDRELRPWCFTTDPNKRWELCDIPRCTTPPPSSGPTYQCLKGTGENYRGNVAVTVSGHTCQHWSAQTPHTHNRTPENFPCKNLDENYCRNPDGKRAPWCHTTNSQVRWEYCKIPSCDSSPVSTEQLAPTAPPELTPVVQDCYHGDGQSYRGTSSTTTTGKKCQSWSSMTPHRHQKTPENYPNAGLTMNYCRNPDADKGPWCFTTDPSVRWEYCNLKKCSGTEASVVAPPPVVLLPDVETPSEEDCMFGNGKGYRGKRATTVTGTPCQDWAAQEPHRHSIFTPETNPRAGLEKNYCRNPDGDVGGPWCYTTNPRKLYDYCDVPQCAAPSFDCGKPQVEPKKCPGR
Plasmin light chain B: VVGGCVAHPHSWPWQVSLRTRFGMHFCGGTLISPEWVLTAAHCLEKSPRPSSYKVILGAHQEVNLEPHVQEIEVSRLFLEPTRKDIALLKLSSPAVITDKVIPACLPSPNYVVADRTECFITGWGETQGTFGAGLLKEAQLPVIENKVCNRYEFLNGRVQSTELCAGHLAGGTDSCQGDSGGPLVCFEKDKYILQGVTSWGLGCARPNKPGVYVRVSRFVTWIEGVMRNN
modifications: Plasmin
notes: Human Plasmin (Enzyme Research Labs), positive control for fibrin degradation
[2]; exogenous plasmin 1 U/ml
  matrix degradation, positive control: rapid matrix degradation
